For one experiment, the system named is fatty liver (ethionine). The experiment is described as follows: Effect on fatty liver (ethionine model). The note with it: diet plus 0.2% ethionine and 0.2% compound, 5 days. The experiment is classed as in vivo, male mice (4 week-old, dd-strain). The source says: There are known many factors inducing fatty liver. But, the fatty liver is grouped into a couple of patterns from the mechanism of lipid accumulation or metabolism of lipoprotein in the liver. Ethionine is a typical compound inducing fatty liver. It inhibits RNA and protein syntheses and destructs polysome of the liver cell. Fatty liver is induced by the inhibition of protein synthesis and the disturbance of lipoprotein secretion.
Usually, fatty liver is closely related to the accumulation of triglyceride in the liver. In the present example, the degree of fatty liver and protective or therapeutic effect against the fatty liver was evaluted by measurement of triglyceride content in the liver.
The animals used in the test were 4 week-old male mice (dd-strain).
The mice were submitted for 5 days to a normal diet (control), to the normal diet plus 0.2% ethionine (positive control), to the normal diet plus 0.2% ethionine and 0.2% of the compound of this invention, or to the normal diet plus 0.2% ethionine and 0.2% methionine which was the referential diet. At the end of the period of 5 days, content of triglyceride in the liver was studied colorimetrically by chromotropic acid method and the result was represented as triolein content (mg/g-liver).

Experiment [1] deals with Chronic Liver Damage (thioacetamide). The experiment is described as follows: Therapeutic effect on chronic liver damage (thioacetamide model), BSP test. It is filed as in vivo, rats (Sprague Dawley strain). As to conditions: 12 times TAA 100 mg/kg, then diet + 0.2% compound. As for the experimental part:
In the tests of this Example, TAA was repeatedly administered to animals to prepare test animals suffering from somewhat chronic liver damages, and then the present compounds were administered thereto to know whether or not the compounds were effective against chronic hepatitis.
The degree of the liver damage and the therapeutic effects of the compounds were evaluated according to BSP test. The BSP test is a method in which BSP (sulfobromophthalein sodium), a dye known to be quickly metabolized in and excreted from the liver, is intravenously injected into animals and, after a definite period of time, the blood is taken out to measure the amount of BSP remaining in the plasma. In case the animals are suffering from the liver damage, the dye will remain, according to the degree of the damage, at the stage where a major portion of BSP is metabolized and excreted in the case of normal animals.
Five groups of rats (Sprague Dawley strain) were treated as follows:
Group A: The rats were orally administered with 100 mg/kg of thioacetamide,at 3 days intervals for 36 days (12 times of the administration), then were submitted for 10 days to a normal diet.
Group B: The rats were orally administered with 100 mg/kg of thioacetamide at 3 days intervals for 36 days (12 times of the administration), then were submitted for 10 days to the normal diet + 0.2% of compound 4.
Group C: The rats were orally administered with 100 mg/kg of thioacetamide at 3 days intervals for 36 days (12 times of the administration) then were submitted for 10 days to the normal diet + 0.2% of compound 2.
Group D: The rats were orally administered with 100 mg/kg of thioacetamide at 3 days intervals for 36 days (12 times of the administration) then were submitted for 10 days to the normal diet + 0.2% of anethol trithion.
Group E: The rats were submitted to the normal diet as the control.
Five rats were sacrified from each group at appropriate intervals for BSP (sulfobromophthalein) test, the results of which were shown as amounts (mg) of BSP remaining in 1 dl of plasma.

The subject of experiment [2] is acute liver damage associated with discrete lobular necrosis (D-galactosamine). The experiment is described as follows: Protective effect on acute hepatitis with mesenchymal reaction and discrete lobular necrosis (D-galactosamine model). It is filed as in vivo, male rat (SD strain). The note with it: 100 mg/kg oral 6 h before D-galactosamine. As for the experimental part:
D-Galactosamine is a compound which induces a discrete lobular necrosis associated with mesenchymal reaction similar to the change observed in human viral hepatitis, so that it is frequently used in producing a model for viral hepatitis.
The compound of this invention or anethol trithion was administered orally to the male rat (SD strain) at the dose of 100 mg/kg. Six hours after it, D-galacetosamine was intraperitoneally administered at the dose of 600 mg/kg. Four hours after it, an additional 300 mg/kg was administered intraperitoneally. Eight hours after it, the animals were sacrificed to collect the blood samples. P-GPT activity and triglyceride in the liver were measured to evaluate the effect of the compound of this invention.

Experiment [3] has as its system Acute Liver Damage associated with Centrilobular Necrosis (carbon tetrachloride). The experiment is described as follows: Protective effect on acute liver damage associated with centrilobular necrosis (carbon tetrachloride model). It is filed as in vivo, mice (four-week-old male, dd strain). As to conditions: 250 mg/kg oral 6 h before CCl4, average of 5 to 6 mice.

As to `CC(C)OC(=O)C(C(=O)OC(C)C)=C1SCCS1` [Compound 4, Diisopropyl 1,3-dithiolan-2-yliden malonate], in the experiment with fatty liver (ethionine), the “Triglyceride (content in the liver, as triolein)” value came to 10.4 ± 1.6 mg/g. Moreover, the “Concentration of BSP in plasma” value in experiment [1] (2 Days) worked out at 7.6 ± 1.1 mg/dL; in experiment [1] (5 Days) it was 3.8 ± 0.5 mg/dL; in experiment [1] (10 Days) it was 0.3 ± 0.1 mg/dL. Besides, in experiment [2], the Triglyceride in liver is 4.6 ± 0.73 mg/g. The p-GPT in experiment [2] turned out to be 63±23 Karmen unit. Also, the “p-GPT (plasma glutamic-pyruvic transaminase activity)” value in experiment [3] (24 h after CCl4, values over 1,000 regarded as 1,000) worked out at 23 Karmen units. For the same compound, the “Liver Damage Index” value in experiment [3] (0 normal, 2 slightly recognized, 4 clearly observable damage, 6 heavy damage) came out at 0.2.

These data come from patent US4080467A, “Pharmaceutical compositions comprising 1,3-dithiolan-2-ylidene malonate derivatives” (Nihon Nohyaku Co., Ltd., priority 1976, dated 1978).
